According to patent EP4729615A1, “SIRNA TARGETING MMP7, SIRNA CONJUGATE AND MEDICAL USE THEREOF” (Tuojie Biotech (Shanghai) Co., Ltd., priority 2023, dated 2024):
Strand notation (5' to 3'): a small letter for the sugar, then the base; units joined by * are phosphorothioate-linked, units joined directly phosphodiester-linked; [ ] holds rarer units or linkages, { } end groups; capitals alone tell only the bases. {I-14} = ligand I-14 conjugated at sense 5' end; m = 2'-O-methyl; f = 2'-fluoro

Key:
[1] = target: human recombinant αvβ6 protein (Homo sapiens, UniProt P06756+P18564); assay: fluorescence polarization (FP) binding assay with fluorescent RGD peptide; details: 12 concentration points, highest 10 µM, 3-fold serial dilution
Method: The specific assay method is as follows: • 3.5 µL of test compound I-12 was added to a 384-well black plate. For the test compound, 12 concentration points were set up. The highest concentration was 10 µM, and 3-fold serial dilution was performed. DMSO control wells were used to determine the maximum signal, and 500 nM compound CWHM-12 (MCE, HY-18644) control wells were used as the minimum signal. Then, 3.5 µL of 4× human recombinant αvβ6 protein working solution was added. After incubation at room temperature for 15 min, 7 µL of 2× fluorescent RGD peptide solution was added to each well. The plate was incubated at room temperature for 1 h, and then FP signals were read using Envision. Using GraphPad Prism, the inhibition curve fitting was performed, and the IC50 value was calculated. The IC50 value (Z prime > 0.5) was calculated using the following formula: Y = Bottom + (Top−Bottom)/(1+10^(∧)((LogIC50−X)×HillSlope)) [formula] • X: Log inhibitor concentration; Y: inhibition rate %.

MMP7 mRNA = assay: on-target activity of siRNA conjugates at 2 endogenous concentration points in HCC38 cells, Q-PCR (Example 10); type: cell-based, human; details: 24 h after transfection; for 2 nM remaining expression (%): siRNA conjugate 2 nM; for 10 nM remaining expression (%): siRNA conjugate 10 nM
Method: The siRNA conjugates were subjected to an in vitro molecular-level activity screening in HCC38 cells using 2 concentration gradients.
HCC38 cells were cultured at 37 °C with 5% CO2 in a 1640 culture medium containing 10% fetal bovine serum. 24 h prior to transfection, the HCC38 cells were seeded into a 96-well plate at a density of 1.5 × 10^4 cells per well, with each well containing 100 µL of the culture medium.
The cells were transfected with the siRNA conjugates using Lipofectamine RNAi Max (Invitrogen, 13778-150) according to the instructions. 0.3 µL of Lipofectamine RNAi Max was used for each well. A total of 2 concentration points were set for the siRNA conjugates, i.e., 10 nM and 2 nM, respectively. 24 h after transfection, RNA was extracted for Q-PCR to detect the activity of the siRNA conjugates. […] Table 9. Activity results of siRNA conjugates at 2 concentration points at the HCC38 cellular level

human recombinant αvβ6 protein, sequence (P06756 31-992 limits assumed): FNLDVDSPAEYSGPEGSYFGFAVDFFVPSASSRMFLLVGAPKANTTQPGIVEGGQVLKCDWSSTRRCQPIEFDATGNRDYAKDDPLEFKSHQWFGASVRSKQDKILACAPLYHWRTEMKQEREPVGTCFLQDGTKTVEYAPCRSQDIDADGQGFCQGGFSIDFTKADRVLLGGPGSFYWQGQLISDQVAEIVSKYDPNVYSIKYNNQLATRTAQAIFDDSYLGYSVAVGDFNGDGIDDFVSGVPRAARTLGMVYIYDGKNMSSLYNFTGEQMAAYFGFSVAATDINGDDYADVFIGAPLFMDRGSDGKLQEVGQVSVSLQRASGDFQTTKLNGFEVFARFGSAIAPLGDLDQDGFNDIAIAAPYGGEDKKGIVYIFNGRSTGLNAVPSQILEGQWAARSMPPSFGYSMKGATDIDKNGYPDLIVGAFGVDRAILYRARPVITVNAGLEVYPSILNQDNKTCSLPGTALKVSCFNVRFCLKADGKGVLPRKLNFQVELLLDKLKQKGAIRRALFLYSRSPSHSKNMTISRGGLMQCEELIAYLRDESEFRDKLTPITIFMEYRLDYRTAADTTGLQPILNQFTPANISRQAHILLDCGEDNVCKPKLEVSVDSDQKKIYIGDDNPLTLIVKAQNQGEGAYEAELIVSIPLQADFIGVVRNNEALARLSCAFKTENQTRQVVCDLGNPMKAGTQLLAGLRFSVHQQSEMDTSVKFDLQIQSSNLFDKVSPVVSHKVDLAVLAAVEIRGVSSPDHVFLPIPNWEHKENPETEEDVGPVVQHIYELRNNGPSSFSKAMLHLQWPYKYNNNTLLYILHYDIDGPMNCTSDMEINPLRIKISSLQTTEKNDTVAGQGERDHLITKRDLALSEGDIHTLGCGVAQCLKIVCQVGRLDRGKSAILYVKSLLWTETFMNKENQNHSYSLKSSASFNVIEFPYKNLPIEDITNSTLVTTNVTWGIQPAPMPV
human recombinant αvβ6 protein, sequence (P18564 22-707 limits assumed): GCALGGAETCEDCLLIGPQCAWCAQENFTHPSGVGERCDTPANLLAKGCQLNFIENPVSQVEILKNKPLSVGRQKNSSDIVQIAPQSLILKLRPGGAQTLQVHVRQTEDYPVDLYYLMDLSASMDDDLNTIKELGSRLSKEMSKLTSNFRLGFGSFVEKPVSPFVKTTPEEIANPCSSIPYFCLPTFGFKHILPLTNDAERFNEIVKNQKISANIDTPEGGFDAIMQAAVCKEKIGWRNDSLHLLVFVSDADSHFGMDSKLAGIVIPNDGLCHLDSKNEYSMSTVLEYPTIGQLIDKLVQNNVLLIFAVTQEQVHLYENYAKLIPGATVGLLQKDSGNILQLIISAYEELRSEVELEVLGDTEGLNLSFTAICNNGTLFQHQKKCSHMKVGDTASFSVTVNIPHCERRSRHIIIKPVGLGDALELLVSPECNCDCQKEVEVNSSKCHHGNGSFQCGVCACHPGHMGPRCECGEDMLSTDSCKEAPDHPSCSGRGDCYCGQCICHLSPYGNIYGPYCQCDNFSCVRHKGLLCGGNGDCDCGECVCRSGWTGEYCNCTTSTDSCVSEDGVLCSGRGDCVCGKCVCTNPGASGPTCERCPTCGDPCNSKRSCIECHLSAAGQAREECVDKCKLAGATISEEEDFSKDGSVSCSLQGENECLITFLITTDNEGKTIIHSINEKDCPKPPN

Molecule | IC50 [1] | 2 nM remaining expression (%) (MMP7 mRNA) | 10 nM remaining expression (%) (MMP7 mRNA)
[N-]=[N+]=NCCOCCOCCOCCOCCOc1ccc(-c2ccc([C@H](CC(=O)O)NC(=O)CNC(=O)CCCNc3cc4ccccc4cn3)cc2)c2ccccc12 [I-12] | 79.9 nM |  | 
TJR103312: siRNA conjugate containing I-14; SS SEQ ID NO 28 (I-14UmsGmsGmGmUmAmGfAfUfGmUmCmAmAmUmAmAmAmUm), AS SEQ ID NO 58 (sense {I-14}-mU*mG*mGmGmUmAfGfAfUmGmUmCmAmAmUmAmAmAmU; antisense AUUUAUUGACAUCUACCCACU; antisense: chemistry not given here) |  | 11.35% | 8.20%
TJR103313: siRNA conjugate containing I-14; SS SEQ ID NO 29 (I-14UmsGmsAmCmUmCmAfGfAfAmAmCmAmAmAmAmAmAmUm), AS SEQ ID NO 59 (sense {I-14}-mU*mG*mAmCmUmCfAfGfAmAmAmCmAmAmAmAmAmAmU; antisense AUUUUUUGUUUCUGAGUCAUA; antisense: chemistry not given here) |  | 8.05% | 4.23%
TJR103314: siRNA conjugate containing I-14; SS SEQ ID NO 30 (I-14AmsUmsUmCmAmAmGfAfAfAmGmAmAmAmUmAmGmAmAm), AS SEQ ID NO 60 (sense {I-14}-mA*mU*mUmCmAmAfGfAfAmAmGmAmAmAmUmAmGmAmA; antisense UUCUAUUUCUUUCUUGAAUUA; antisense: chemistry not given here) |  | 14.73% | 8.03%
